# According to ChEMBL document CHEMBL1139998, “Design, synthesis, and binding studies of bidentate Zn-chelating peptidic inhibitors of glyoxalase-I” (Bioorg Med Chem Lett, 2007):
# Molecular target: T1, Glyoxalase I (Saccharomyces cerevisiae S288c, UniProt P50107)
# T1 sequence (P50107 whole entry): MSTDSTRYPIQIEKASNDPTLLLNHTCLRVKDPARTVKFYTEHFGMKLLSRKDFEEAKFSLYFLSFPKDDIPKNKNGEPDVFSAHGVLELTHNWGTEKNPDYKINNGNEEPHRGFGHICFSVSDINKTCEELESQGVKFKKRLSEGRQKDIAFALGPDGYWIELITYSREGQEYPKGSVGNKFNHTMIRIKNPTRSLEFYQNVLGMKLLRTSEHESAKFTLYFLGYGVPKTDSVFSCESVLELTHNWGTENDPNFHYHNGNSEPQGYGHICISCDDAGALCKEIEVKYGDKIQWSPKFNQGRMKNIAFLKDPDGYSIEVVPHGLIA
# Assay: Inhibition of yeast glyoxalase 1
row,Ki [µM],SMILES
1,66.9,N[C@@H](CCC(=O)N[C@@H](CCC(=O)CC(=O)OCc1ccc(Br)cc1)C(=O)NCC(=O)O)C(=O)O
2,112,COC(=O)CC(=O)CC[C@H](NC(=O)CC[C@H](N)C(=O)O)C(=O)NCC(=O)O
